Reference: ChEMBL document CHEMBL1129005 (Bioorg Med Chem Lett, 1996)

Legend:
[1] = biological target: T1, Muscarinic acetylcholine receptor M1 (Homo sapiens, UniProt P11229); experiment: Compound was evaluated for displacement of [3H]QNB from human Muscarinic m1 receptor in CHO cells.; format: cell-based
T1 sequence (P11229 whole entry): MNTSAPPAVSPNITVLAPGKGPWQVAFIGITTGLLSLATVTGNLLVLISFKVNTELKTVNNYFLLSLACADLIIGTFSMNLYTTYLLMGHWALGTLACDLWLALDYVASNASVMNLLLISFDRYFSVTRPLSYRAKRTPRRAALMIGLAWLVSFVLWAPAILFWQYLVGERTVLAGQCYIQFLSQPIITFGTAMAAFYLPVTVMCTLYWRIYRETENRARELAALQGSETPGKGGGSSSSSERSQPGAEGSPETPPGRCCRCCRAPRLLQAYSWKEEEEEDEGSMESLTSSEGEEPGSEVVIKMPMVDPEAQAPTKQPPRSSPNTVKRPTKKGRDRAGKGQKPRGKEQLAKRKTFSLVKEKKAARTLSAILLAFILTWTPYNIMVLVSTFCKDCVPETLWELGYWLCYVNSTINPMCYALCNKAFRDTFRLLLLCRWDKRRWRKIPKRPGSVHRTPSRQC

[2] = biological target: T2, Muscarinic acetylcholine receptor M2 (Homo sapiens, UniProt P08172); experiment: Compound was evaluated for displacement of [3H]-QNB from human Muscarinic m2 receptor in CHO cells.; format: cell-based
T2 sequence (P08172 whole entry): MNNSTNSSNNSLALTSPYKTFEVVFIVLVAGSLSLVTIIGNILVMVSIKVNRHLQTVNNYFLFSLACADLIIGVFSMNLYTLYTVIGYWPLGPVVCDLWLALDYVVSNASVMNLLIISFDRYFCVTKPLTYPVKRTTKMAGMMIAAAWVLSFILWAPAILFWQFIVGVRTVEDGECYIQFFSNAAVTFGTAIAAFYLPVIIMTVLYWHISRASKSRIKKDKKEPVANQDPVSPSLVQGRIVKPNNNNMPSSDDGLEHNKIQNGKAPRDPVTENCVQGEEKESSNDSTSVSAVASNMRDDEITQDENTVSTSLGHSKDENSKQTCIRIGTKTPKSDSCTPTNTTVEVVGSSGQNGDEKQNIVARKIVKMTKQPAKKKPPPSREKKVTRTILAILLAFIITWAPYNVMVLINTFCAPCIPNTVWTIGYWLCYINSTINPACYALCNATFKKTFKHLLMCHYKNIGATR

Compound	Ki [1]	Ki [2]
CCCN(CCC)CC1CCCCN1CCNC(=O)N1c2ccccc2C(=O)Nc2cccnc21 (stereo unspecified)	12.4 nM	5.28 nM
CC1CCN(CC(=O)N2c3ccccc3C(=O)Nc3cccnc32)CC1	82.4 nM	71.2 nM
CCN(CC)CC1CCCCN1CC(=O)N1c2ccccc2C(=O)Nc2cccnc21 (stereo unspecified) [OTENZEPAD]	179 nM	52 nM
